Results taken from ChEMBL document CHEMBL1201862, “PubChem BioAssay data set” (2004).
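Where inhibition never reached the appropriate level, the endpoint shown equals the highest concentration tested. Otherwise, values were interpolated linearly from a five-concentration, 48-hour dose response in 96-well plates. GI50 = concentration required for 50% inhibition of growth.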 Activity calls are given as the source filed them. No stated cut-off is given here; in the data, active = GI50 up to about 1.1 µM and inactive = higher.

What was measured:
Test in all cases: DTP human tumour cell line panel, 48 h
Hs-578T = test system: Hs-578T
SK-MEL-5 = test system: SK-MEL-5
T47D = test system: T47D
MDA-MB-231 = test system: MDA-MB-231
NCI-H226 = test system: NCI-H226
M19-MEL = test system: M19-MEL
CAKI-1 = test system: CAKI-1
SN12C = test system: SN12C
OVCAR-4 = test system: OVCAR-4
HOP-92 = test system: HOP-92
OVCAR-8 = test system: OVCAR-8
SK-OV-3 = test system: SK-OV-3
A498 = test system: A498
HL-60 = test system: HL-60
IGROV-1 = test system: IGROV-1
MDA-N = test system: MDA-N
SNB-78 = test system: SNB-78
SF-295 = test system: SF-295
U-251 = test system: U-251
TK-10 = test system: TK-10
SF-268 = test system: SF-268
DU-145 = test system: DU-145
DMS-273 = test system: DMS-273
EKVX = test system: EKVX
SK-MEL-2 = test system: SK-MEL-2
SF-539 = test system: SF-539
NCI/ADR-RES = test system: NCI/ADR-RES
DLD-1 = test system: DLD-1
LXFL 529 = test system: LXFL 529
OVCAR-3 = test system: OVCAR-3
786-0 = test system: 786-0
HCT-15 = test system: HCT-15
UO-31 = test system: UO-31
UACC-62 = test system: UACC-62
SW-620 = test system: SW-620
SNB-19 = test system: SNB-19
Malme-3M = test system: Malme-3M
HOP-18 = test system: HOP-18
HT-29 = test system: HT-29
M14 = test system: M14
RXF 393 = test system: RXF 393
HOP-62 = test system: HOP-62
PC-3 = test system: PC-3
SK-MEL-28 = test system: SK-MEL-28
OVCAR-5 = test system: OVCAR-5
RXF 631 = test system: RXF 631
SNB-75 = test system: SNB-75
MCF7 = test system: MCF7
NCI-H460 = test system: NCI-H460
HCC 2998 = test system: HCC 2998
DMS-114 = test system: DMS-114
A549 = test system: A549
ACHN = test system: ACHN
KM-20L2 = test system: KM-20L2
RPMI-8226 = test system: RPMI-8226

## COC1C(O)C(C)OC(OC2C(Oc3cccc4c(O)c5c(=O)oc6ccc(C)c7c(=O)oc(c34)c5c67)OC(C)C3O[C@H](c4ccccc4)OC32)C1O (stereo not given in full)
Hs-578T
  GI50: 531 nM (active)
SK-MEL-5
  GI50: 131 nM (active)
T47D
  GI50: 196 nM (active)
MDA-MB-231
  GI50: 845 nM (active)
NCI-H226
  GI50: 68.2 nM (active)
M19-MEL
  GI50: 156 nM (active)
CAKI-1
  GI50: 207 nM (active)
SN12C
  GI50: 57.8 nM (active)
OVCAR-4
  GI50: 1300 nM (inactive)
HOP-92
  GI50: 1230 nM (inactive)
OVCAR-8
  GI50: 34 nM (active)
SK-OV-3
  GI50: 533 nM (active)
A498
  GI50: 73.1 nM (active)
HL-60
  GI50: 98 nM (active)
IGROV-1
  GI50: 68.1 nM (active)
MDA-N
  GI50: 372 nM (active)
SNB-78
  GI50: 875 nM (active)
SF-295
  GI50: 103 nM (active)
U-251
  GI50: 196 nM (active)
TK-10
  GI50: 1060 nM (active)
SF-268
  GI50: 135 nM (active)
DU-145
  GI50: 193 nM (active)
DMS-273
  GI50: 20.6 nM (active)
EKVX
  GI50: 1240 nM (inactive)
SK-MEL-2
  GI50: 824 nM (active)
SF-539
  GI50: 74.6 nM (active)
NCI/ADR-RES
  GI50: 2120 nM (inactive)
DLD-1
  GI50: 45.6 nM (active)
LXFL 529
  GI50: 67.8 nM (active)
OVCAR-3
  GI50: 195 nM (active)
786-0
  GI50: 52.1 nM (active)
HCT-15
  GI50: 168 nM
UO-31
  GI50: 294 nM (active)
UACC-62
  GI50: 140 nM (active)
SW-620
  GI50: 63.1 nM (active)
SNB-19
  GI50: 130 nM (active)
Malme-3M
  GI50: 845 nM (active)
HOP-18
  GI50: 1050 nM (active)
HT-29
  GI50: 87.7 nM (active)
M14
  GI50: 851 nM (active)
RXF 393
  GI50: 274 nM (active)
HOP-62
  GI50: 44.1 nM (active)
PC-3
  GI50: 361 nM (active)
SK-MEL-28
  GI50: 319 nM (active)
OVCAR-5
  GI50: 1480 nM (inactive)
RXF 631
  GI50: 31.4 nM (active)
SNB-75
  GI50: 583 nM (active)
MCF7
  GI50: 84 nM (active)
NCI-H460
  GI50: 19.5 nM (active)
HCC 2998
  GI50: 453 nM (active)
DMS-114
  GI50: 288 nM (active)
A549
  GI50: 28.6 nM (active)
ACHN
  GI50: 37.8 nM (active)
KM-20L2
  GI50: 55 nM (active)
RPMI-8226
  GI50: 79.6 nM (active)
